Experimental data published in paper PMC10690091 (Cancer Research, 2023).

Tests used:
[1] = system: ER transcriptional activity; assay: RNA-seq ER-regulated gene expression in MCF7 and CAMA-1 cells; assay type: cell-based, human; settings: 100 nmol/L + 1 nmol/L estradiol, 24 hours
Protocol: MCF7 and CAMA-1 cells were seeded into 6-well microplates in phenol red-free RPMI-1640 medium (Invitrogen) containing 2 mmol/L L-glutamine and 5% (volume/volume, v/v) charcoal-stripped FBS (Sigma). […] Samples were harvested in 1 mL of QIAzol lysis buffer and snap-frozen. Snap-frozen tissue from PDX studies was homogenized and resuspended in QIAzol lysis buffer. RNA was extracted using RNeasy 96 QIAcube HT total RNA Cell with DNAse treatment, and samples randomized over 96-well plates. RNA was quantified using the Qubit RNA BR kit (Q10213 Invitrogen), per the manufacturer's instructions.
[…], RNA integrity was analyzed on a TapeStation 4200 using the RNA 6000 Nano Kit (5067 1511, Agilent), according to the manufacturers’ instructions. The Illumina Truseq stranded mRNA library was generated by the Cancer Research UK Cambridge Institute Genomic core facility, and sequencing of cell lines was performed on the Illumina Hiseq4000 platform, providing single-end 50 base pair reads and around 20 million reads per sample. PDX samples were sequenced using Illumina NovaSeq600, providing paired-end 100 base pair reads and around 34 million reads per sample.
Quality control and gene expression quantification of RNA sequencing (RNA-seq) were performed using the RNA-seq pipeline implemented in bcbio-nextgen (https://bcbio-nextgen.readthedocs.org/en/latest/). Reads were aligned to the University of California (Santa Cruz, CA) Homo sapiens GRCh38 genome build, augmented with transcript information from Ensembl release 86 using HiSat2 ([31]). Alignments were evaluated for evenness of coverage, ribosomal RNA content, genomic context of alignments, and complexity, using a combination of FastQC, Qualimap, and custom computational tools ([32]). Transcripts per million measurements per isoform were generated by quasi-alignment using Salmon and were used to estimate the abundance of genes ([33]). The aggregated gene counts were used for differential gene expression analyses using DESeq2 ([34]).

[2] = target: T1, ER in Ishikawa endometrial cancer cell line (Homo sapiens, UniProt P03372); assay: ER degradation and agonism (PgR expression) in Ishikawa cells; assay type: cell-based
T1 sequence (P03372 1-595): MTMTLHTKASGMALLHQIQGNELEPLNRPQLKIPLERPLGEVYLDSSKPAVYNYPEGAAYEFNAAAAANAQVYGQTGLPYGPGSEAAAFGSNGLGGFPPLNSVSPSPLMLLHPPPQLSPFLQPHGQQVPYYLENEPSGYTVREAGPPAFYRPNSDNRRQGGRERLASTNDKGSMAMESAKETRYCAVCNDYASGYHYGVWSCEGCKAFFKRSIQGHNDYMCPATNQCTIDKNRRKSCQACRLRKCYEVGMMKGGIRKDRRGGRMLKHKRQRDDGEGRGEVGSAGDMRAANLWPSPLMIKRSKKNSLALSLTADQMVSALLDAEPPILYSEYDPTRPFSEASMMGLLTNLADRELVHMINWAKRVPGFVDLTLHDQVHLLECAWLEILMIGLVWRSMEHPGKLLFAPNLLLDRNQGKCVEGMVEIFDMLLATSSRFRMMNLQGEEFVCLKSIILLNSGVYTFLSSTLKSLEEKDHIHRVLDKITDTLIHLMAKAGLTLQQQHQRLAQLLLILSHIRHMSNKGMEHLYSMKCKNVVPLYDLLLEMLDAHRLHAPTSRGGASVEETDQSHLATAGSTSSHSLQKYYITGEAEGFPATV
Protocol: Cells were seeded into 12-well tissue culture-treated plates (0.5×10^6 cells/well) in phenol red-free RPMI medium containing 5% (v/v) charcoal-stripped FBS.
Cell lysates were loaded on NuPAGE 4% to 12% Bis-Tris Midi Protein Gels, transferred to nitrocellulose membranes and immunoblotted with anti-ER antibody (clone SP1, Thermo Fisher Scientific). To detect ER agonism, Ishikawa cells were incubated in media containing 5% (v/v) double charcoal-stripped FBS, achieved by stripping FBS using activated charcoal (C9157, Sigma). Blots were probed with anti-PgR antibody (clone 636, Dako) then horseradish peroxidase secondary antibody (anti-mouse, 7076 Cell Signaling Technology or anti-rabbit, 7070 Cell Signaling Technology). Protein levels were measured on the G-box using Pierce West Dura and West Femto chemiluminescent reagents and Syngene software.

CAMA-1 cells = assay: Sytox Green proliferation assay, CAMA-1; assay type: cell-based, human; settings: 7-day proliferation
Protocol: MCF7 and CAMA-1 cells were seeded into 96-well microplates in phenol red-free RPMI-1640 medium containing 2 mmol/L L-glutamine and 5% (v/v) charcoal-stripped FBS at 4×10^3 and 8×10^3 cells/well, based on the doubling time of each cell line. Plates were incubated for 24 hours (37°C; 5% CO2) and a 10-point concentration range of selected compounds was dispensed onto the cells. Dimethyl sulfoxide (DMSO) was dispensed into control wells to give a 0.1% final concentration. One plate was untreated, as a day 0 control. […] were counted at days 0 and 7 (or day 6 for Y537S ESR1m MCF7 cells) using Sytox Green nucleic assay stain (180 nmol/L per well). Green (dead) cells were counted at days 0 and 7 using an Acumen Explorer (TTP Labtech) or Cellinsight imager (Thermo Fisher Scientific). Saponin 0.045% (weight/volume) was added to permeabilize the cells overnight, permitting total cell count. The number of live cells was calculated by subtracting dead cells from the total cell count, and curve-fitted using GraphPad Prism. Average cell counts from the day 0 plate were used to determine 0% cell growth. A dose–response curve was plotted using non-linear regression to determine the IC50 and bottom-of-curve values. Viability assay methods are described in Supplementary Methods.

ST3632 ESR1wt PDX = assay: Efficacy in ST3632 PDX model; assay type: in vivo, mice; settings: oral camizestrant 10 mg/kg daily, palbociclib 50 mg/kg daily, abemaciclib 50 mg/kg daily
[3] = system: MCF7 palbociclib-resistant cell lines (PC1, PC6, PC8); assay: Cell Titer Glo viability in palbociclib-resistant MCF7 lines; assay type: cell-based, human; settings: 7 days
Protocol: B) Viability of CTC174 PDX-derived […]
organoids treated with the indicated drugs for 144 hours. Mean ± standard error of the mean (one experiment using six independent CTC174 organoid lines in three technical replicates). P values were calculated using two-tailed paired t tests of biological replicates. C) Immunoblots of CTC174 PDX tumors and quantification of ER, pS6, S6, or PCNA following treatment. Mean ± standard deviation (n=5). p values were calculated using ANOVA tests. D) Genetic backgrounds for cell lines with putative mechanism of resistance to palbociclib indicated for each cell line. Combination matrix plots […]
palbociclib or abemaciclib at indicated doses for 7 days using Cell Titer Glo viability assay. Values represent measured cell viability normalized to Day 0 (treatment day) and dimethyl sulfoxide control at Day 7. […]
protein levels measured by western blot. […]
dependent kinase 4/6 (inhibitor); Ctrl, control; del, deletion; ER, estrogen receptor; ESR1, estrogen receptor 1 gene; Everol, everolimus; MCL1, induced myeloid leukemia cell differentiation protein; mut, mutation; nd, not determined; Palbo, palbociclib; PCNA, proliferating cell nuclear antigen; PDX, patient-derived xenograft; PgR, progesterone receptor; PIK3CA, phosphatidylinositol 3-kinase subunit α; Rb, retinoblastoma; S6, Ribosomal protein S6; veh, vehicle; wt, wild-type […]
An untreated plate was read on […]

ST1799/HI/PBR PDX = assay: Efficacy in palbociclib-resistant ST1799/HI/PBR PDX model; assay type: in vivo, mice; settings: camizestrant 10 mg/kg daily, palbociclib 50 mg/kg, abemaciclib 50 mg/kg, capivasertib 130 mg/kg, 40 days
Protocol: For all PDX models, tumors were measured twice weekly; changes in tumor volume and growth inhibition were determined by bilateral Vernier caliper measurement (length x width). Length was the longest diameter across the tumor and width the corresponding perpendicular.
For efficacy studies, animals were randomized into treatment groups and dosing started once tumor volume reached 150–300 mm^3. Details of efficacy studies, and group sizes and treatments are described in corresponding figure legends. PDX models in Fig. 6 and Supplementary Fig. S1 were part of the multi-arm study (with arms irrelevant to this publication) with common control monotherapy arms (e.g., the vehicle-treated group).
(TV) was calculated using the formula: TV (mm3) = (3.142 x max (length:width) x min […]
established tumors were removed from two donor mice and dissected into 3x3x3 mm pieces in RPMI 1640 media. […] TV was calculated as TV (mm3) = width2 x length x 0.52.
For the combination studies in the CTC174 PDX model (hormone-independent), established tumors were removed from donor mice and dissected into 3x3x3 mm pieces in RPMI 1640 media. […] TV was calculated using the formula: TV (mm3) = (3.142 x max (length:width) x min (length:width) x min (length:width))/6,000, or (mm3) = width2 x length x 0.52 for the CTC174 study. […]

How did the “estradiol-driven gene expression (ER transcriptional activity)” value [1] turn out when `C[C@@H]1Cc2c([nH]c3ccccc23)[C@@H](c2c(F)cc(/C=C/C(=O)O)cc2F)N1CC(C)(C)F` [AZD9496] was run?
Its value is “antagonized all estradiol-driven gene expression”.

What about the “ER agonism (PgR expression as a marker)” value [2] of the same molecule?
The value was “evident in endometrial in vitro and in vivo models”.

What about the cell growth inhibition (CAMA-1 cells) of the same molecule?
Its cell growth inhibition is “weaker antiproliferative effects”.

For `CCN1CCN(Cc2ccc(Nc3ncc(F)c(-c4cc(F)c5nc(C)n(C(C)C)c5c4)n3)nc2)CC1` [abemaciclib, reference compound], which “reduction of relative TV compared with the vehicle” value (ST3632 ESR1wt PDX) is on record?
Its value is 46%.

What about the “sensitivity of palbociclib-resistant lines” value [3] of the same molecule?
The value was “sensitive”.

`NC1(C(=O)N[C@@H](CCO)c2ccc(Cl)cc2)CCN(c2nc[nH]c3nccc2-3)CC1` [capivasertib, reference compound] was tested. Which tumor growth (ST1799/HI/PBR PDX) did it give?
The tumor growth was “could not completely arrest tumor growth”.

For `CC(=O)c1c(C)c2cnc(Nc3ccc(N4CCNCC4)cn3)nc2n(C2CCCC2)c1=O` [palbociclib], which “reduction of relative TV compared with the vehicle” value (ST3632 ESR1wt PDX) is on record?
Its value is 0%.
